The structures appear in SMILES notation.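 Cells were grown in 96-well plates and exposed to each compound for 48 hours at five concentrations; endpoints were interpolated linearly between bracketing concentrations, or set to the highest concentration if not reached. TGI denotes the concentration required for complete inhibition of growth.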 Where a SMILES comes first, the peptide text is derived from it. [ ]: non-standard residue; d: D form. ΔPro = O=C(O)[CH]1C=CCN1

This note sets out measurements from PubChem BioAssay (NCI).

Test systems include HOP-18 NSCLC; RXF 393 renal; HOP-62 NSCLC; OVCAR-3 ovarian; EKVX NSCLC; A498 renal; SK-MEL-5 melanoma; NCI-H460 lung; SW-620 colon; HL-60(TB) leukemia; SF-539 CNS; SK-OV-3 ovarian; BT-549 breast; SR leukemia; 786-0 renal; MDA-N; DU-145 prostate.
Common to all, as to test: NCI-60 cell line screen, 48 h

In the case of `O=C(O)CCC(NC(=O)c1ccc(Nc2cnc3cc(C(F)(F)F)ccc3n2)cc1)C(=O)O` (stereo not given), the TGI in the test with HOP-18 NSCLC, with RXF 393 renal, in the test with HOP-62 NSCLC, with OVCAR-3 ovarian, with EKVX NSCLC and in the test with A498 renal was > 100 µM each time. The TGI in the test on SK-MEL-5 melanoma, in the test with NCI-H460 lung, with SW-620 colon, in the test on HL-60(TB) leukemia, with SF-539 CNS and in the test on SK-OV-3 ovarian was > 100 µM throughout.
Turning to `Cc1cc(=O)oc2c1cc1ccc3cccc4ccc2c1c34`, the TGI in the test on HOP-18 NSCLC, in the test on OVCAR-3 ovarian, with EKVX NSCLC, in the test with A498 renal, with SK-MEL-5 melanoma and in the test with NCI-H460 lung was > 100 µM in each case. In addition, the TGI with SW-620 colon, with HL-60(TB) leukemia, in the test on SF-539 CNS and in the test on SK-OV-3 ovarian was > 100 µM in each case.
In the case of `C=C(C)C1CC[C@@](C)(O)[C@H](C#N)C1` (stereo not given in full), the TGI in the test with BT-549 breast, in the test with SR leukemia, in the test with RXF 393 renal, in the test on 786-0 renal, with HOP-62 NSCLC and in the test with OVCAR-3 ovarian was > 100 µM each time. Further, the TGI in the test on EKVX NSCLC, in the test on A498 renal, in the test with MDA-N, with SK-MEL-5 melanoma, in the test with DU-145 prostate and with NCI-H460 lung was > 100 µM each time. For the same molecule, the TGI with SW-620 colon, in the test with HL-60(TB) leukemia, in the test on SF-539 CNS and in the test with SK-OV-3 ovarian was > 100 µM each time.
`CCN(CC)C1Oc2cc3c(cc2C(c2cc(OC)c(O)c(OC)c2)C1C)OCO3` (stereo not given): the TGI was > 100 µM with BT-549 breast; 32.7 µM with SR leukemia; > 31.5 µM in the test on RXF 393 renal; 29.1 µM in the test with 786-0 renal; 39.6 µM with HOP-62 NSCLC; 25.9 µM in the test with OVCAR-3 ovarian. Further, the TGI in the test on EKVX NSCLC was > 75.6 µM; in the test on A498 renal, 64.8 µM; in the test with MDA-N, 4.8 µM; in the test with SK-MEL-5 melanoma, 30.7 µM; in the test on DU-145 prostate, > 89.3 µM; in the test with NCI-H460 lung, 20.6 µM. Moreover, the TGI in the test on SW-620 colon was 20.9 µM; in the test on HL-60(TB) leukemia, 11.9 µM; in the test on SF-539 CNS, 34.7 µM; in the test on SK-OV-3 ovarian, 66.3 µM.
For `Cn1nnc2c(C(N)=S)ncn2c1=O`, the TGI in the test on BT-549 breast, with SR leukemia, in the test with RXF 393 renal, with 786-0 renal, in the test on HOP-62 NSCLC and with OVCAR-3 ovarian was > 100 µM in each case. In addition, the TGI in the test with EKVX NSCLC, in the test with A498 renal, in the test on MDA-N, in the test with SK-MEL-5 melanoma, in the test on DU-145 prostate and with NCI-H460 lung was > 100 µM throughout. For the same molecule, the TGI in the test with SW-620 colon, with HL-60(TB) leukemia, in the test on SF-539 CNS and with SK-OV-3 ovarian was > 100 µM each time.
For `O=C(O)C1C=CCN1C(=O)C1C=CCN1C(=O)C1C=CCN1` (stereo not given) (H-[ΔPro]-[ΔPro]-[ΔPro]-OH; configuration not given here), the TGI in the test on BT-549 breast, in the test on SR leukemia, in the test on RXF 393 renal, in the test with 786-0 renal, in the test on HOP-62 NSCLC and in the test on OVCAR-3 ovarian was > 100 µM in each case. Moreover, the TGI with EKVX NSCLC, in the test with A498 renal, in the test on MDA-N, in the test with SK-MEL-5 melanoma, in the test with DU-145 prostate and in the test on NCI-H460 lung was > 100 µM each time. The TGI in the test on SW-620 colon, in the test with HL-60(TB) leukemia, in the test on SF-539 CNS and with SK-OV-3 ovarian was > 100 µM each time.
Turning to `CC(=O)Nc1cc(Cl)cc(Cl)c1O`, the TGI in the test with BT-549 breast, with SR leukemia, in the test with RXF 393 renal, in the test on 786-0 renal, in the test on HOP-62 NSCLC and in the test on OVCAR-3 ovarian was > 100 µM in each case. Moreover, the TGI in the test on EKVX NSCLC, in the test on A498 renal, in the test on MDA-N, in the test with SK-MEL-5 melanoma, in the test with DU-145 prostate and in the test on NCI-H460 lung was > 100 µM in each case. In addition, the TGI in the test on SW-620 colon, in the test with HL-60(TB) leukemia, in the test with SF-539 CNS and in the test with SK-OV-3 ovarian was > 100 µM throughout.
Take `[N-]=[N+]=NC1C(O)C(CO)OC1n1ccc(N)nc1=O` (stereo not given): the TGI is > 625 µM in the test with BT-549 breast; 296 µM with SR leukemia; > 602 µM with RXF 393 renal; > 625 µM in the test on 786-0 renal; > 625 µM with HOP-62 NSCLC; > 595 µM in the test with OVCAR-3 ovarian. Further, the TGI with EKVX NSCLC, in the test on A498 renal, with MDA-N, in the test on SK-MEL-5 melanoma, with DU-145 prostate and in the test with NCI-H460 lung was > 625 µM in each case. The TGI with SW-620 colon is > 625 µM; with HL-60(TB) leukemia, 25.3 µM; with SF-539 CNS it was 455 µM; in the test with SK-OV-3 ovarian, > 625 µM.
On to `COc1cccc(NC(=O)CSc2nnc(Cc3ccccc3)o2)c1`, for which the TGI in the test with HOP-18 NSCLC, in the test with RXF 393 renal, in the test with 786-0 renal, with HOP-62 NSCLC, in the test with OVCAR-3 ovarian and with A498 renal was > 100 µM each time. The TGI in the test on SK-MEL-5 melanoma, in the test with NCI-H460 lung, with SW-620 colon, in the test on HL-60(TB) leukemia, with SF-539 CNS and in the test on SK-OV-3 ovarian was > 100 µM in each case.
On to `C=C1c2nc3ccccc3n2C=C(c2ccccc2)N1c1ccc(Cl)cc1`, for which the TGI was > 66.2 µM with BT-549 breast; > 100 µM in the test on SR leukemia; > 67.6 µM with RXF 393 renal; 20.6 µM in the test on 786-0 renal; > 63.3 µM in the test on HOP-62 NSCLC; 59.5 µM in the test with OVCAR-3 ovarian. In addition, the TGI in the test on EKVX NSCLC was 49.2 µM; in the test with A498 renal, > 77 µM; in the test with MDA-N, > 100 µM; in the test with SK-MEL-5 melanoma it was > 100 µM; with DU-145 prostate, > 100 µM; with NCI-H460 lung, > 49.4 µM. The TGI with SW-620 colon was > 100 µM; in the test on HL-60(TB) leukemia it was > 100 µM; with SF-539 CNS, 20.9 µM; in the test on SK-OV-3 ovarian it was > 86.7 µM.
Consider `CN1CCC2(c3ccccc3)CC(=O)/C(=C/c3ccc(Cl)c(Cl)c3)C1C2` (stereo not given), for which the TGI in the test with BT-549 breast was 6.83 µM; in the test on SR leukemia, 4.74 µM; with RXF 393 renal it was 7.07 µM; in the test with 786-0 renal it was 5.35 µM; with HOP-62 NSCLC it was 12.3 µM; in the test with OVCAR-3 ovarian, 9.59 µM. Moreover, the TGI in the test on EKVX NSCLC worked out at 9.63 µM; in the test on A498 renal, 12.8 µM; in the test on MDA-N it was 13.9 µM; in the test with SK-MEL-5 melanoma, 8.37 µM; with DU-145 prostate, 11.9 µM; with NCI-H460 lung, 5.94 µM. In addition, the TGI is > 21.6 µM with SW-620 colon, 3.46 µM with HL-60(TB) leukemia, 4.35 µM in the test on SF-539 CNS and 13.6 µM with SK-OV-3 ovarian.
On to `O=Cc1ccc2ccocc1-2`, for which the TGI in the test with BT-549 breast, with SR leukemia, with RXF 393 renal, in the test with 786-0 renal, in the test on HOP-62 NSCLC and in the test on OVCAR-3 ovarian was > 100 µM throughout. For the same molecule, the TGI in the test with EKVX NSCLC, in the test on A498 renal, in the test on MDA-N, with SK-MEL-5 melanoma, with DU-145 prostate and in the test on NCI-H460 lung was > 100 µM each time. In addition, the TGI in the test on SW-620 colon, with HL-60(TB) leukemia, in the test with SF-539 CNS and in the test with SK-OV-3 ovarian was > 100 µM each time.
`COc1ccc(N2C(=O)C(Cl)C2c2cc3cc(Br)ccc3nc2Cl)cc1` (stereo not given): the TGI in the test on BT-549 breast was 9.11 µM; in the test with SR leukemia, 6.82 µM; in the test with RXF 393 renal, 9.38 µM; in the test with 786-0 renal it was 18.5 µM; in the test with HOP-62 NSCLC, 20.4 µM; in the test with OVCAR-3 ovarian, > 25 µM. The TGI in the test with EKVX NSCLC is 9.86 µM; in the test with A498 renal it was > 25 µM; in the test on MDA-N, 15.7 µM; in the test with SK-MEL-5 melanoma it was 8.63 µM; in the test with DU-145 prostate it was 21.2 µM; in the test on NCI-H460 lung, 12.2 µM. Besides, the TGI with SW-620 colon is 16.2 µM; with HL-60(TB) leukemia, 14.5 µM; in the test on SF-539 CNS it was 10 µM; with SK-OV-3 ovarian it was > 25 µM.
Take `C=C1CC(OC)(C(OC)C(=O)N[C@H]2OCO[C@H]3C2O[C@H](C[C@@H](COC)OC)C(C)(C)C3OC)O[C@H](C)[C@@H]1C` (stereo not given in full): the TGI in the test on HOP-18 NSCLC came out at 23.9 µM; with RXF 393 renal it was 5.38 µM; in the test with HOP-62 NSCLC, 8.46 µM; in the test with OVCAR-3 ovarian, 2.96 µM; in the test on A498 renal, 2.58 µM; in the test with SK-MEL-5 melanoma, 1.3 µM. Further, the TGI in the test with NCI-H460 lung was found to be 5.96 µM; with SW-620 colon, 15 µM; in the test on HL-60(TB) leukemia it was 1.33 µM; in the test on SF-539 CNS, 2.85 µM; with SK-OV-3 ovarian it was 8.12 µM.
Regarding `CNC(=O)C(C)Oc1ccc(OCC2CCCCC2)cc1` (stereo not given), the TGI in the test on HOP-18 NSCLC, in the test with RXF 393 renal, with 786-0 renal, in the test with OVCAR-3 ovarian, in the test on A498 renal and with SK-MEL-5 melanoma was > 100 µM each time. Moreover, the TGI in the test on NCI-H460 lung, with HL-60(TB) leukemia, in the test on SF-539 CNS and with SK-OV-3 ovarian was > 100 µM each time.
